Laboratory results from US4289781A, “Anti-psychotic phthalimidine derivatives” (priority 1979, dated 1981).

Assays:
[1] = system: DA receptors in the brain; assay: Block of apomorphine induced hyperactivity in rats (number of animals displaying hyperactivity); assay type: in vivo, Male Sprague-Dawley rats; conditions: i.p., 60 min prior to apomorphine hydrochloride 1 mg/kg s.c.; dose reducing number of animals showing hyperactivity by 50% over 60 min
Source text: There are several techniques available to study DA receptor blockade in the brain. One method is based on the ability of anti-psychotics to block the behavioural effects induced by the DA agonist apomorphine. Apomorphine produces a characteristic syndrome in rats and other species consisting of repetitive movements (stereotypies) and hyperactivity which appear to be due to activation of postsynaptic DA receptors in the brain (J Pharm. Pharmacol. 19, 627, 1967; J Neurol. Transm. 40, 97-113, 1977). The stereotypies (chewing, licking, biting) appear mainly to reflect action on DA receptors of the neostriatal system (J Phychiat. Res., 11, 1, 1974) whereas the increased locomotion (hyperactivity) mainly appears to be due to activation of DA receptors in mesolimbic structures (nucleus olfactorium, nucleus accumbens), (J Pharm. Pharmacol. 25, 1003, 1973).
Male Sprague-Dawley rats weighing 225-275 g were used. […] The compounds were injected 60 min prior to apomorphine hydrochloride (1 mg/kg) which was injected subcutaneously into the neck.
Directly after injection, the animals were placed in the cages, one in each cage. Scoring of the stereotypies were performed by two separate methods. The first scoring system was a modified version of the system introduced by Costall and Naylor (1973). The strength of the stereotypy was scored on a 0-3 scale as follows:
In the second system the number of animals displaying hyperactivity caused by apomorphine were scored. Each group consisted of 6-8 animals. Saline controls were always run simultaneously. ED50 's are in the first scoring system (0-3 scale), the doses which reduce the strength of the stereotypies by 50% over the observation period of 60 min. ED50 's of the second scoring system are the doses which reduce the number of animals showing hyperactivity by 50% over the observation period of 60 min. The ED50 's were calculated from log dose-response curves by the method of least squares from 4-6 dose levels with 6-8 animals per dose level.

[2] = system: DA receptors in the brain; assay: Block of apomorphine induced stereotypies in rats (0-3 scale scoring); assay type: in vivo, Male Sprague-Dawley rats; conditions: i.p., 60 min prior to apomorphine hydrochloride 1 mg/kg s.c.; dose reducing strength of stereotypies by 50% over 60 min
Source text: There are several techniques available to study DA receptor blockade in the brain. One method is based on the ability of anti-psychotics to block the behavioural effects induced by the DA agonist apomorphine. Apomorphine produces a characteristic syndrome in rats and other species consisting of repetitive movements (stereotypies) and hyperactivity which appear to be due to activation of postsynaptic DA receptors in the brain (J Pharm. Pharmacol. 19, 627, 1967; J Neurol. Transm. 40, 97-113, 1977). The stereotypies (chewing, licking, biting) appear mainly to reflect action on DA receptors of the neostriatal system ([…]. Res., 11, 1, 1974) whereas the increased locomotion (hyperactivity) mainly appears to be due to activation of DA receptors in mesolimbic structures (nucleus olfactorium, nucleus accumbens), (J Pharm. Pharmacol. 25, 1003, 1973). Male Sprague-Dawley rats weighing 225-275 g were used. […] The compounds were injected 60 min prior to apomorphine hydrochloride (1 mg/kg) which was injected subcutaneously into the neck. […] Furthermore, apomorphine given s.c. also produced a very consistent hyperactivity. Directly after injection, the animals were placed in the cages, one in each cage. Scoring of the stereotypies were performed by two separate methods. The first scoring system was a modified version of the system introduced by Costall and Naylor (1973). The strength of the stereotypy was scored on a 0-3 scale as follows: |______________________________________ |Score Description of stereotyped behaviour. |______________________________________ |0 No change in behaviour compared to saline controls | No sedation. |1 Discontinuous sniffing. |2 Continuous sniffing. |3 Continuous sniffing. Chewing, biting and licking. |______________________________________ In the second system the number of animals displaying hyperactivity caused by apomorphine were scored. Each group consisted of 6-8 animals. Saline controls were always run simultaneously. […] The ED50 's were calculated from log dose-response curves by the method of least squares from 4-6 dose levels with 6-8 animals per dose level.

[3] = experimental animals; cited from earlier work
[4] = in vivo; cited from earlier work

Structure (SMILES) | Hyperactivity ED50 [1] [µmol/kg] | Stereotypies ED50 [2] [µmol/kg] | catalepsy [3] | extrapyramidal side effects [4]
O=C1c2ccc(F)cc2CN1C1CCN(Cc2ccccc2)CC1 [Example 1, 2-(4-N-benzylpiperidyl)-5-fluorophthalimidine] | 4.0 | 22.0 |  | 
O=C1c2ccc(Br)cc2CN1C1CCN(Cc2ccccc2)CC1 [Example 2, 2-(4-N-benzylpiperidyl)-5-bromo phthalimidine] | 14 | 17.5 |  | 
O=C1c2ccc(Cl)cc2CN1C1CCN(Cc2ccccc2)CC1 [Example 3, 2-(4-N-benzylpiperidyl)-5-chloro phthalimidine] | 2.0 | 16.0 |  | 
COc1ccc(CN2CCC(N3Cc4cc(Cl)ccc4C3=O)CC2)cc1 [Example 7, 5-chloro-2-[4-N-(4-methoxybenzyl)piperidyl]-phthalimidine] | 2.2 | 9.5 |  | 
O=C1c2ccc(Br)cc2CN1C1CCN(Cc2ccc(Cl)cc2)CC1 [Example 11, 5-bromo-2-[4-N-(4-chlorobenzyl)-piperidyl]-phthalimidine] | 3.4 | 11 |  | 
Cc1ccc(CN2CCC(N3Cc4cc(Br)ccc4C3=O)CC2)cc1 [Example 14] | 1.7 | 6.5 |  | 
O=C1c2ccc(Cl)cc2CN1C1CCN(Cc2ccc(Cl)cc2)CC1 [Example 15, 5-chloro-2-[4-N-(4-chlorobenzyl)piperidyl)-phthalimidine] | 3.5 | 14 |  | 
Cc1ccc(CN2CCC(N3Cc4cc(Cl)ccc4C3=O)CC2)cc1 [Example 16, 5-chloro-2-[4-N-(4-methylbenzyl)piperidyl]-phthalimidine] | 0.9 | 9 |  | 
CCN1CCCC1CNC(=O)c1cc(S(N)(=O)=O)ccc1OC (stereo not shown) [Sulpiride] | 45 |  | weak catalepsy | weak extrapyramidal side effects
